Results taken from patent US6455541B1, “Suppression, by 5-lipoxygenase inhibitors, of bone resorption” (Board of Regents, The University of Texas System, priority 1994, dated 2002).
“And” between values parts separate entries of the source, which are not always exact repeats. Identical values can stand only once. “Also recorded” adds a separate entry of the source. Like-named read-outs stand apart in the source and are kept apart here.

How the values were obtained:
[1] = tested on: isolated avian osteoclasts; assay: TRAP activity in isolated avian osteoclasts; type: cell-based, Gallus domesticus
Method: Avian osteoclasts were isolated from medullary bone of laying White Leghorn hens Gallus domesticus (Pioneer Animal Supply, Kingswheel, Ohio) as described previously by Zambonin-Zallone and Teti (1981). In brief, bone marrow suspensions from the medullary bone of femora were filtered through Nytex cloth (110 μm, t'etko, Elmsford, N.Y.), centrifuged for 5 min at 1200 rpm, and the cell pellet resuspended in 0.2% NaCl for 3 min to lyse erythrocytes. After layering the cells on 100% fetal bovine serum for 1 h, sedimented cells were further filtered through Nytex filters (55 μm). Cells were harvested, resuspended in α-minimal Eagle's medium (GIBCO) containing 10 fetal bovine serum, with penicillin (100 units/ml), streptomycin (100 μg/ml), and Ara-C, to inhibit proliferation of nonosteoclastic cells. Cells were plated in 24- or 48-well plates (Costar, Cambridge, Mass.) at 1×10^4 cells/well and incubated at 37° C. in 10% CO2 humidified air for 48 h, after which they were washed to remove nonadherent cells. When matured osteoclasts were observed experiments were begun and terminated within 48 h.
(§1) Osteoclast TRAP activity was measured using fluorescence spectroscopy as described by Chambers et al. (1987) with minor modifications. In brief, media from osteoclast cultures were harvested and stored at −70° C. until ready for assay.
(§2) The cells were washed with phosphate-buffered saline and harvested in 0.5 ml of Triton X-100 (0.05%, w/v). Aliquots of media or lysate 30 μl) were incubated with 170 μl of 2 mM methylumbelliferyl phosphate, pH 5.0, in 0.48 M acetate buffer (0.48 M sodium acetate, 0.48 M acetic acid, pH 5.0) and 30 mM tartaric acid. Samples were incubated for 30 min at 37° C. and the reaction terminated with 100 μl of stop solution containing 50 mM glycine, 50 mM EDTA, pH 10.4. Fluorescence was measured at excitation 360 nm and emission 448 nm using a fluorimeter (Fluoroskan, Flow Instruments). Enzyme activity was expressed as micromoles of methylumbelliferyl phosphate hydrolyzed/min/μg of protein and the protein content measured by the technique of Lowry et al. (1951).

[2] = tested on: isolated rat osteoclasts; assay: Disaggregated rat osteoclast pit formation assay on sperm whale dentine; type: cell-based
Method: (§3) Quantitation of the effects of isolated osteoclasts on calcified matrices was determined using minor modifications of the disaggregated osteoclast resorption assay as described by Boyde et al. (1984). Sperm whale dentine (0.25×7×7 mm) was prepared using a Buehler low speed diamond saw (Buehler, Lake Bluff, Ill.) followed by sonication (15 min) in several changes of distilled water. Slices were sterilized using ultraviolet light.
Neonatal Sprague-Dawley rats (2-3 days) were sacrificed by decapitation, the femurs and tibias were removed, scraped free of adherent tissue, and trimmed free of the epiphyses. The bones from one litter were combined and quickly minced using a scalpel blade in 2 ml of 199 medium and then vigorously mixed with a pipette in an 8-ml tube, allowed to settle for 10 s, and then 100 μl of the suspension was added to each well for a total of 16 wells in a 48-well microtiter plate containing sperm whale dentine (approximately four neonates are used per 16 wells). The cells were incubated at 37° C. for 30 min at which time the dentine was removed, washed in media, and placed in a fresh 48-well plate containing 250 μl of test medium.
(§4) Osteoclasts were stained for TRAP and counted and then pit numbers were counted following toluidine blue (0.1% w/v) staining by light microscopy. The plan area of matrix resorbed was quantitated using a computer-assisted morphometric program on a Bioquant System IV analysis system (R & M Biometrics, Nashville, Tenn.).
Quantitation of the effects of isolated neonatal rat osteoclasts on calcified matrices was determined using minor modifications of the disaggregated osteoclast resorption assay as described by Boyde et al (1984). Briefly rat osteoclasts isolated as described by Chambers et al. (1983) were dispersed on prewetted (AMEM plus 5% FBS) slices of sperm whale dentine. Cultures were performed in 48 well-microtiter plates in humidified air (10% CO2) at 37° C. in αMEM medium (one slice/well in 200 μl medium). Numbers of osteoclasts and resorption lacunae were quantitated as described above for the avian osteoclasts.

[3] = tested on: neonatal mouse calvariae; assay: Neonatal mouse (murine) calvarial assay, 45Ca release; type: cell-based
Method: The assay was performed as described by Gowen et al. (1983). Timed pregnant mice were injected with ^45Ca 2 days before parturition. Half-calvaria were removed from the 1-2-day-old pups and preincubated for 24 h in BGJb medium at 37° C. in a humidified atmosphere of 5% CO2 before transfer to fresh media with or without test substances for 48 h. The bones were incubated for a further 72 h and media and bones collected. Bone-resorbing activity was expressed as the percentage of the total ^45Ca released into the medium.

[4] = tested on: isolated 23C6+ human giant cells; assay: Pit formation by isolated human giant cells on sperm whale dentine; type: cell-based
Method: as §3, §4
Human giant cell tumors (normally discarded after surgery) were minced and passed through 1#40SS wire mesh screen, allowed to settle for 5 min, and the cell suspension above the sediment collected. The cells were incubated with 23C6 monoclonal antibody that identifies the osteoclast vitronectin receptor (generously provided by Dr. Michael Horton) (1:10 dilution of hybridoma supernatant/10^6 cells) at 4° C. in serum-free medium for 30 min, after which immunomagnetic beads coated with anti-mouse IgG (Dynabead, Dynal, Inc., Great Neck, N.Y.) were added to the cell suspension. […]

[5] = tested on: isolated 23C6(+) human giant cells of bone; assay: TRAP activity in isolated human giant cells; type: cell-based
Method: as §1, §2
Human giant cell tumors (normally discarded after surgery) were minced and passed through 1#40SS wire mesh screen, allowed to settle for 5 min, and the cell suspension above the sediment collected. […]

[6] = tested on: C433 cells; assay: Radioimmunoassay of 5-HETE in C433-conditioned media; type: cell-based, human; conditions: +1,25-(OH)2 vitamin D3 10^−8 M, duplicate
Method: The radioimmunoassays for 5-HETE were purchased from Advanced Magnetics, Inc. (Cambridge, Mass.).
(§5) C433 cells were grown in 10% fetal bovine serum (Whittaker, Walkersville, Md.) 50% RPMI, 50% McCoys (Flow, McLean, Va.) until a density of 10^4 cells/ml was obtained, at which time the cells were harvested, washed, […] This conditioned medium was applied to a prewetted C18 Sep-Pak (Millipore, Waters, Milford, Mass.), and bound material was extracted using ethyl acetate. This material was dried under nitrogen and resuspended in water, it acetic acid and analyzed by high pressure measure liquid chromatography (HPLC) (Waters, Milford, Mass.) applied to a C8 semipreparative 25 cm×10 mm reverse phase column (Keystone Scientific, Inc., Bellefonte, Pa.) at 2 ml/min. The gradient was 0-100% methanol, 1% acetic acid over 60 min with 6-ml fractions collected. The fractions were dried under nitrogen, and those fractions to be assayed for osteoclast stimulating activity were stabilized with 20 μl of 10% bovine serum albumin. Fractions to be used for gas chromatography-mass spectrometric analysis were prepared for derivatization.
To confirm that C433-conditioned medium contained these 5-LO metabolites and that production was hormonally regulated, radioimmunoassays were performed for 5-HETE using commercially available kits. […]

[7] = tested on: C433 cells; assay: Production of osteoclast-stimulating activity by C433 cells (conditioned medium bioassayed for TRAP in avian osteoclasts); type: cell-based, human; conditions: flurbiprofen 10^−5 M; indomethacin 10^−6 M; nordihydroguaiaretic acid 10^−6, 10^−5 or 10^−4 M
Method: FIG. 3A, FIG. 3B, FIG. 3C and FIG. 3D. Chemical characterization of activity. FIG. 3A. C433-conditioned medium was treated with ultraviolet-light (UV) for 24 h or placed in a boiling water bath (100° C.) for 15 min and bioassayed. FIG. 3B. amino peptidase M (A), carboxypeptidase (C), or Pronase-CB (P) were incubated in the presence of C433-conditioned medium for 12 h at 37° C. FIG. 3C. […] The resultant conditioned medium was bioassayed for activity. FIG. 3D. […] Conditioned medium was bioassayed for induction of TRAP activity in avian osteoclasts.
as §5, with “washed, and placed in serum-free DMEM plus 10^−8 M, 1,25-(OH)2D3 for 48 h before harvest of conditioned medium.” for “washed,”

[8] = Lymphotoxin 5 × 10^−9M + NDGA 10^−5M

In the case of 5-hydroxyeicosatetraenoic acid [5-HETE], the “stimulation of TRAP activity in avian osteoclasts (in words)” value [1] is reported as “stimulated TRAP activity”, the “concentration of optimal stimulation of TRAP activity” value ([1]; 10^−8 M stimulates suboptimally) is reported as 10^−10 M and the “stimulation of TRAP activity” value ([1]; 10^−10 M, 48 h) is reported as “maximally stimulated”. For the same molecule, the “pit formation by isolated rat osteoclasts (in words)” value [2] was “caused pit formation”, the “stimulation of bone resorption in neonatal mouse calvariae (in words)” value [3] was “stimulated bone resorption” and the “pit formation by human giant cells (in words)” value [4] was “caused pit formation”. The “stimulation of TRAP activity in human giant cells (in words)” value [5] was “stimulated TRAP activity” and the “stimulation of TRAP activity” value ([5]; 10^−10 M, 48 h) was “maximally stimulated”.
For `C=C1/C(=C\C=C2/CCC[C@]3(C)[C@@H]([C@H](C)CCCC(C)(C)O)CC[C@@H]23)C[C@@H](O)C[C@@H]1O` [1,25D3, 1,25 dihydroxyvitamin D3], the “45Ca release, factor alone (Table IV)” value ([3]; 1,25D3 10^−10M, IL-1 1 × 10^−10M) was 37.2%, the “45Ca release, Factor alone (Table II)” value ([3]; IL-1 5 × 10^−10M, TNF 2 × 10^−10M, Lymphotoxin 5 × 10^−9M, PTH 4 ng/ml, 1,25D3 10^−10M) was 35.3% and 31.8% and 37.0% and the “5-HETE in C433-conditioned media” value ([6]; 6 h) was 3.36 pg/mL and 3.53 pg/mL. The “5-HETE in C433-conditioned media” value ([6]; 12 h) was 11.07 pg/mL and 11.68 pg/mL.
For `CCCCC/C=C\C\C=C/C=C/C=C/[C@@H](SC[C@H](NC(=O)CC[C@H](N)C(=O)O)C(=O)NCC(=O)O)[C@@H](O)CCCC(=O)O` [LTC4, leukotriene C4], the “stimulation of pit formation” value ([4]; 10^−10 M) was “stimulated”.
For `CC(Cc1ccc(O)c(O)c1)C(C)Cc1ccc(O)c(O)c1` (stereo not drawn) [NDGA, nordihydroguaiaretic acid], the “effect on production of C433 activity” value [7] was “completely blocked”, the “inhibition of PTH and PTHrP-induced bone resorption” value ([2]; NDGA 10^−6M, MK886 1 μg/ml, ZM 230,487 10 ng/ml, 20 hours) was “inhibition of the bone resorption was seen” and the “order of inhibitory effectiveness” value ([2]; PTH and PTHrP-induced bone resorption, NDGA 10^−6M, MK886 1 μg/ml, ZM 230,487 10 ng/ml) was “ZM230487>MK886>NDGA”. The “inhibition of 1,25(OH)2 vitamin D3-induced bone resorption (in words)” value ([3]; 1,25(OH)2 vitamin D3 as factor) was “no significance was observed”, the “45Ca release, Factor + NDGA” value ([3]; 1,25D3 10^−10M + NDGA 10^−5M) was 31.7% and 29.2% and 32.5% and the “% Inhibition” value ([3]; 1,25D3 10^−10M + NDGA 10^−5M) was 19.8% and 24.1%. The “Ca^45 Release, LPS + NDGA” value ([3]; AAY4 LPS 25 μg/ml + NDGA 10^−5M) was 13.6%, the “45Ca release, LPS + NDGA” value ([3]; AaY4 LPS 50 μg/ml + NDGA 10^−5M) was 22.2% and the “inhibition of LPS-induced bone resorption (in words)” value ([3]; AaY4 LPS and/or WR14 LPS) was “significantly inhibited; also recorded: Significant inhibition”. For the same molecule, the “45Ca release, Factor + NDGA” value ([3]; IL-1 5 × 10^−10M + NDGA 10^−5M) was 23.4% and 24.6%, the “% Inhibition” value ([3]; IL-1 5 × 10^−10M + NDGA 10^−5M) was 32.8% and the “inhibition of IL-1-induced bone resorption (in words)” value ([3]; IL-1 as factor) was “significantly inhibits”. The “45Ca release, Factor + NDGA” value [3, 8] was 26.8% and 35.5%, the “% Inhibition” value [3, 8] was 31.7% and the inhibition at 10 µM ([3]; Mus musculus, 1,25D3 10^−10M + NDGA 10^−5M, read-out: % Inhibition) was 19.6%. For the same molecule, the inhibition at 10 µM ([3]; Mus musculus, AAY4 LPS 25 μg/ml + NDGA 10^−5M, read-out: % Inhibition) was 120%, the inhibition at 10 µM ([3]; Mus musculus, AaY4 LPS 50 μg/ml + NDGA 10^−5M, read-out: % Inhibition) was 57.2% and the inhibition at 10 µM ([3]; Mus musculus, IL-1 5 × 10^−10M + NDGA 10^−5M, read-out: % Inhibition) was 30%. The inhibition at 10 µM ([3]; Mus musculus, Lymphotoxin 5 × 10^−9M + NDGA 10^−5M) was 48.8%, the inhibition at 10 µM ([3]; Mus musculus, TNF 2 × 10^−10M + NDGA 10^−5M, read-out: % Inhibition) was 43.2% and the inhibition at 10 µM ([3]; Mus musculus, WR14 LPS 50 ng/ml + NDGA 10^−5M, read-out: % Inhibition) was 57.6%. The “45Ca release, Factor + NDGA” value ([3]; PTH 4 ng/ml + NDGA 10^−5M) was 30.6% and 31.2% and 28.6%, the “inhibition of PTH-induced bone resorption (in words)” value ([3]; PTH as factor) was “One out of three experiments showed significant inhibition” and the “45Ca release, Factor + NDGA” value ([3]; TNF 2 × 10^−10M + NDGA 10^−5M) was 27.8% and 31.9%. For the same molecule, the “% Inhibition” value ([3]; TNF 2 × 10^−10M + NDGA 10^−5M) was 33.5%, the “inhibition of TNF-induced bone resorption (in words)” value ([3]; TNF as factor) was “significantly inhibits” and the “% Inhibition” value ([3]; WR14 LPS 50 ng/ml + NDGA 10^−5M) was 40.8%. For the same molecule, the “inhibition of lymphotoxin-induced bone resorption (in words)” value ([3]; lymphotoxin as factor) was “significantly inhibits” and the “NDGA inhibition of lipopolysaccharide-induced bone resorption” value ([3]; two different preparations of lipopolysaccharide) was “Greater than 50%”.
